The structures appear in SMILES notation.

The source of these data is patent publication US12076373B2, “Formulations for oral administration of active agents” (Entera Bio Ltd., priority 2015, dated 2024).

Data set [1] can be described thus: Dissolution test: release of SNAC from tablet formulations in simulated gastric buffer. It is filed as physicochemical. Conditions: tablet with 100 mg sodium bicarbonate vs tablet without, trypsin inhibitor, teriparatide, 100 ml simulated gastric buffer without pepsin, pH 2.0, 37° C., USP 23 Apparatus 2, 50 rpm. The protocol:
The tablets were in a form of a homogeneous mixture.
Each tablet formulation was subjected to a dissolution test in 100 ml of simulated gastric buffer (without pepsin), pH 2.0, at 37° C., according to USP 23 Apparatus 2 (paddle) with 50 rotations per minute. The amount of released SNAC in each sample was determined chromatographically, using an HPLC apparatus with Cosmosil™ 5 C18-MS-II (4.6 ID×250 mm) column. Mobile phase consisted of 50% acetonitrile and 50% phosphoric acid solution (0.1%). Flow rate was 1 ml/minute and injection volume was 25 μl. Amount of released SNAC was calculated as a percentage of the amount of SNAC in the formulation.

Data set [2] is described as follows: Open label comparative pharmacokinetic study of oral teriparatide tablet in healthy volunteers. Type of data set: in vivo, human. Conditions: oral tablet 0.75 mg teriparatide + SNAC + SBTI, with 150 ml of 3 mg/ml sodium bicarbonate solution vs 150 ml water; ten healthy volunteers, fasted; plasma. The protocol: An open label comparative pharmacokinetic study was performed on ten healthy volunteers. On different visits, each volunteer received the same oral tablet containing 0.75 mg of teriparatide, a recombinant form of parathyroid hormone (1-34) (PTH(1-34)). In the first visit, the tablet was administered with 150 ml water, whereas in the second visit the tablet was administered with 150 ml of 3 mg/ml sodium bicarbonate aqueous solution.
The formulation was composed of teriparatide (0.75 mg), SNAC (sodium 8-N-(2-hydroxybenzoyl)aminocaprylate), soybean trypsin inhibitor (SBTI) and a small amount of magnesium stearate.
Tablets were administered in the morning after an 8-hour overnight fast. At each visit a standard meal was provided 3 hours after drug administration. […] There was a two week period between the two visits.
To determine PTH(1-34) concentrations, blood samples (4 ml each) were drawn via an indwelling catheter from the forearm vein at predetermined time points during each visit. The cannula was flushed with 1.5 ml normal saline after each sampling. In addition, to avoid sample dilution, 1 ml of blood was drawn and discarded before the next sample. […] PTH(1-34) levels were measured using an IDS-iSYS automated assay for the measurement of intact PTH(1-34) in human plasma or serum. […] Relative absorption was determined based on the AUC (area under curve) parameter.

Regarding `O=C(O)CCCCCCCNC(=O)c1ccccc1O` [SNAC, sodium 8-N-(2-hydroxybenzoyl)aminocaprylate], the “dissolution of SNAC in tablets (released SNAC as a percentage of the amount of SNAC in the formulation)” value in data set [1] is on record as “considerably enhanced”. As for `CC[C@H](C)[C@H](NC(=O)[C@H](CCC(=O)O)NC(=O)[C@H](CO)NC(=O)[C@@H](NC(=O)[C@@H](N)CO)C(C)C)C(=O)N[C@@H](CCC(N)=O)C(=O)N[C@@H](CC(C)C)C(=O)N[C@@H](CCSC)C(=O)N[C@@H](Cc1cnc[nH]1)C(=O)N[C@@H](CC(N)=O)C(=O)N[C@@H](CC(C)C)C(=O)NCC(=O)N[C@@H](CCCCN)C(=O)N[C@@H](Cc1cnc[nH]1)C(=O)N[C@@H](CC(C)C)C(=O)N[C@@H](CC(N)=O)C(=O)N[C@@H](CO)C(=O)N[C@@H](CCSC)C(=O)N[C@@H](CCC(=O)O)C(=O)N[C@@H](CCCN=C(N)N)C(=O)N[C@H](C(=O)N[C@@H](CCC(=O)O)C(=O)N[C@@H](Cc1c[nH]c2ccccc12)C(=O)N[C@@H](CC(C)C)C(=O)N[C@@H](CCCN=C(N)N)C(=O)N[C@@H](CCCCN)C(=O)N[C@@H](CCCCN)C(=O)N[C@@H](CC(C)C)C(=O)N[C@@H](CCC(N)=O)C(=O)N[C@@H](CC(=O)O)C(=O)N[C@H](C(=O)N[C@@H](Cc1cnc[nH]1)C(=O)N[C@@H](CC(N)=O)C(=O)N[C@@H](Cc1ccccc1)C(=O)O)C(C)C)C(C)C` [PTH(1-34), teriparatide], the “increase in absorption of PTH(1-34) (relative absorption based on AUC)” value in data set [2] is “about 35%”.
